The values that follow come from US20070185183A1, “Indolinesulphanilic acid amides as ppar-delta modulators” (Bayer HealthCare AG, priority 2003, published 2007).

The test concerns the target T1, human PPARδ receptor (Homo sapiens, UniProt Q03181).
T1 construct: expressed in transfected cells
T1 sequence (Q03181 211-439 limits assumed): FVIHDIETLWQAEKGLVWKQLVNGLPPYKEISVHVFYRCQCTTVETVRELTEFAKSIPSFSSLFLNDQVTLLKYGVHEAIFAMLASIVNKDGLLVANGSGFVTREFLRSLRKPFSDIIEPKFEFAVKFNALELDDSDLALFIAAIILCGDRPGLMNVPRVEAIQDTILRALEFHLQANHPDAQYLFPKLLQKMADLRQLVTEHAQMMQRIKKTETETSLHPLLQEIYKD
Briefly: Cellular transactivation assay (GAL4-PPARδ chimera, luciferase reporter). The format is cell-based. Conditions: GAL4-PPARδ chimera stably expressed in CHO cells, 24 hours stimulation. The source says:
A cellular assay is used to identify activators of the peroxisome proliferator-activated receptor delta (PPAR-delta).
Since mammalian cells contain different endogenous nuclear receptors which may complicate an unambiguous interpretation of the results, an established chimera system is used in which the ligand binding domain of the human PPARδ receptor is fused to the DNA binding domain of the yeast transcription factor GAL4. The resulting GAL4-PPARδ chimera is co-transfected and stably expressed in CHO cells having a reporter construct.
The GAL4-PPARδ expression construct contains the ligand binding domain of PPARδ (amino acids […]), which is PCR-amplified and cloned into the vector pcDNA3.1. This vector already contains the GAL4 DNA binding domain (amino acids 1-147) of the vector pFC2-dbd (Stratagene). […]
CHO (chinese hamster ovary) cells are sown in CHO-A-SFM medium (GIBCO), supplemented by 2.5% foetal calf serum and 1% penicillin/streptomycin (GIBCO), at a cell density of 2×10^3 cells per well in a 384-well plate (Greiner). […] After a stimulation period of 24 hours, the luciferase activity is measured using a video camera. The relative light units measured give, as a function of the substance concentration, a sigmoidal stimulation curve. The EC50 values are calculated using the computer program GraphPad PRISM (Version 3.02).

Consider `CN(CC(=O)O)c1ccc(S(=O)(=O)N2CC(C)(C)c3cc(-c4ccc(C(F)(F)F)cc4)ccc32)cc1` [Working Example 1, N-[4-({3,3-Dimethyl-5-[4-(trifluoromethyl)phenyl]-2,3-dihydro-1H-indol-1-yl}sulphonyl)phenyl]-N-methylglycine], for which the EC50 (as a rule, the concentration giving half of the maximal effect) was 8.5 nM.
